Source: US20180339976A1, “NOVEL TRIAZOLE DERIVATIVES” (priority 2015, published 2018)

assay: Log P by HPLC on reversed phase columns (EEC directive 79/831 Annex V.A8); format: physicochemical; settings: not given
Experimental: Measurement of Log P values was performed according to EEC directive 79/831 Annex V.A8 by HPLC (High Performance Liquid Chromatography) on reversed phase columns with the following methods: • ^[a]
If more than one Log P value is available within the same method, all the values are given and separated by “+”.
Lambda-max-values were determined using UV-spectra from 200 nm to 400 nm and the peak values of the chromatographic signals.

With `OC(Cc1cc(F)ncc1Cl)(Cn1cncn1)c1ccc(F)cc1` (stereo not drawn) [Example I-15] as the compound, how does the LogP read?
Its LogP is 2.12^[a].

Which LogP does the source give for `OC(Cc1cc(F)ncc1Cl)(Cn1cncn1)c1ccc(Oc2ccc(F)cc2F)cc1` (stereo not drawn) [Example I-54] here?
Its LogP is 3.02^[a].

For `OC(Cc1ccnc(Cl)c1)(Cn1cncn1)c1ccc(Oc2ccccc2)cc1` (stereo not drawn) [Example I-24], which LogP is on record?
The LogP was 2.57^[a].

Which LogP does the source give for `OC(Cc1ccncc1Cl)(Cn1cncn1)c1ccc(Oc2ccccc2)cc1` (stereo not drawn) [Example I-01] here?
The LogP was 2.46^[a].

With `OC(Cc1ccnc(Cl)c1F)(Cn1cncn1)c1ccc(F)cc1F` (single isomer, unassigned) [Example I-56] as the compound, how does the LogP read?
The LogP was 2.21^[a].

For `OC(Cc1ccncc1Cl)(Cn1cncn1)c1ccc(Oc2ccc(Cl)cc2)cc1` (stereo not drawn) [Example I-06], which LogP is on record?
Its LogP is 2.90^[a].

For `OC(Cc1ccncc1F)(Cn1cncn1)c1ccc(F)cc1` (stereo not drawn) [Example I-13], which LogP is on record?
The LogP was 1.26^[a].

Which LogP does the source give for `OC(Cc1cc(Cl)ncc1F)(Cn1cncn1)c1ccc(F)cc1F` (stereo not drawn) [Example I-45] here?
The LogP was 2.13^[a].

Which LogP does the source give for `OC(Cc1ccnc(Cl)c1)(Cn1cncn1)c1ccc(Cl)cc1Cl` (stereo not drawn) [Example I-50] here?
Its LogP is 2.42^[a].

Which LogP does the source give for `OC(Cc1ccncc1F)(Cn1cncn1)c1ccc(F)cc1F` (stereo not drawn) [Example I-43] here?
Its LogP is 1.47^[a].

With `OC(Cc1ccnc(Cl)c1F)(Cn1cncn1)c1ccc(F)cc1` (stereo not drawn) [Example I-23] as the compound, how does the LogP read?
The LogP was 1.91^[a].

same assay, conditions: Table 1, formula (I); method [a]: LC-UV, acidic range, 0.1% formic acid in water and acetonitrile

With `OC(Cc1ccncc1Cl)(Cn1cncn1)c1ccc(-c2ccccc2)cc1` (stereo not drawn) [Example I-02] as the compound, how does the LogP read?
Its LogP is 2.46^[a].

Which LogP does the source give for `OC(Cc1ccncc1F)(Cn1cncn1)c1ccc(-c2ccccc2)cc1` (stereo not drawn) [Example I-04] here?
Its LogP is 2.13^[a].

same assay, conditions: Table 2, epoxides of formula (XII); method [a]: LC-UV, acidic range, 0.1% formic acid in water and acetonitrile

Which LogP does the source give for `Clc1ccccc1COc1ccc(C2(Cc3ccncc3Cl)CO2)cc1` (racemic) [XII-64] here?
Its LogP is 4.30^[a].

With `Clc1cnccc1CC1(c2ccc(Oc3ccccc3)cc2)CO1` (stereo not drawn) [XII-32] as the compound, how does the LogP read?
The LogP was 3.80^[a].

For `Clc1cncc(Cl)c1CC1(c2ccc(-c3ccccc3)cc2)CO1` (racemic) [XII-53], which LogP is on record?
The LogP was 4.89^[a].

With `Fc1c(CC2(c3ccc(Cl)cc3)CO2)ccnc1Cl` (racemic) [XII-43] as the compound, how does the LogP read?
The LogP was 3.58^[a].

Which LogP does the source give for `Fc1ccc(C2(Cc3cc(Cl)ncc3F)CO2)c(F)c1` (stereo not drawn) [XII-20] here?
The LogP was 3.24^[a].

Which LogP does the source give for `Fc1cc(CC2(c3ccccc3Cl)CO2)c(Cl)cn1` (racemic) [XII-38] here?
The LogP was 3.80^[a].

With `Clc1cncc(Cl)c1CC1(c2ccccc2)CO1` (racemic) [XII-58] as the compound, how does the LogP read?
The LogP was 3.53^[a].

Which LogP does the source give for `Fc1ccc(C2(Cc3ccncc3Cl)CO2)cc1` (stereo not drawn) [XII-27] here?
Its LogP is 2.65^[a].

With `Fc1ccc(C2(Cc3ccnc(Cl)c3)CO2)c(F)c1` (stereo not drawn) [XII-11] as the compound, how does the LogP read?
Its LogP is 2.93^[a].

Which LogP does the source give for `Fc1ccc(C2(Cc3ccncc3F)CO2)c(F)c1` (stereo not drawn) [XII-6] here?
Its LogP is 2.38^[a].

With `N#Cc1ccc(C2(Cc3cccnc3Cl)CO2)cc1` (stereo not drawn) [XII-26] as the compound, how does the LogP read?
Its LogP is 2.35^[a].

Which LogP does the source give for `Clc1cccc(C2(Cc3cccnc3Cl)CO2)c1` (stereo not drawn) [XII-23] here?
Its LogP is 3.24^[a].

Which LogP does the source give for `FC(F)(F)c1ccc(C2(Cc3cccnc3Cl)CO2)cc1` (stereo not drawn) [XII-25] here?
The LogP was 3.46^[a].

For `Fc1ccc(Oc2ccc(C3(Cc4ccncc4Cl)CO3)cc2)c(F)c1` (stereo not drawn) [XII-33], which LogP is on record?
The LogP was 3.80^[a].

For `Clc1ccc(C2(Cc3c(Cl)cncc3Cl)CO2)cc1` (racemic) [XII-57], which LogP is on record?
The LogP was 4.10^[a].

With `Fc1cnccc1CC1(c2ccc(Oc3ccccc3)cc2)CO1` (stereo not drawn) [XII-7] as the compound, how does the LogP read?
The LogP was 3.37^[a].

Which LogP does the source give for `Clc1cncc(Cl)c1CC1(c2ccc(Oc3ccccc3)cc2)CO1` (racemic) [XII-51] here?
Its LogP is 4.76^[a].

Which LogP does the source give for `Fc1ccc(Oc2ccc(C3(Cc4cc(F)ncc4Cl)CO3)cc2)c(F)c1` (racemic) [XII-41] here?
Its LogP is 4.51^[a].

Which LogP does the source give for `Fc1ccc(C2(Cc3ccnc(Cl)c3F)CO2)c(F)c1` (racemic) [XII-47] here?
The LogP was 3.26^[a].

For `Clc1cnccc1CC1(c2c(Cl)cccc2Cl)CO1` (racemic) [XII-62], which LogP is on record?
Its LogP is 3.02^[a].
